Test results from patent US11903911B1, “Method of treating obesity by reversal of Na/K-Atpase inhibition” (Marshall University Research Corporation, priority 2019, dated 2024).
“Also recorded” adds a separate entry of the source.

What was measured:
transporter activities = experiment: L-NAME dose finding on intestinal transporter activities; type: in vivo; settings: 10 or 25 mg/kg per day tested in mice and rats
Excerpt: (§1) Animal models and treatment. Zucker rats (Strain code: 185 (Obese), 186 (Lean); 18 wks) obtained from Charles River Laboratories International, Inc. were used as a genetic model of obesity, and C57BL/6 mice (B6) (The Jackson Laboratory) and Sprague Dawley rats (Strain code: 400; Charles River Laboratories International, Inc.) were used as a diet-induced model of obesity. B6 mice were fed with either a low-fat diet (LFD) (10% calories from fat; Cat. No: 58124, LabDiet, USA) or high-fat diet (HFD) (60% calories from fat; Cat. No: 58126, LabDiet, USA) starting at 4 weeks of age until they reached 20 weeks of age. Sprague Dawley rats were fed the above-mentioned diets from the age of 12 weeks for 6 weeks to induce obesity. To inhibit constitutive nitric oxide production in both mice and rats, the animals were first treated with either a 10 or 25 mg/kg per day dosage of used N^G-nitro-L-arginine methyl ester (L-NAME). Studies determined that 10 mg dose of L-NAME was the lowest dose to consistently affect transporter activities and was therefore used in all subsequent experiments. For the diet-induced mice obesity model, LFD and HFD fed B6 mice were treated with this dose from the age of 20 weeks, and Sprague Dawley rats were treated from the age of 17 wks for 1 week. All the experimental animals were handled and euthanized according to Marshall University IACUC regulations.

NHE3 = experiment: Na/H exchange (NHE3) uptake in BBMV of L-NAME-treated obese rats; type: in vivo, rat; settings: obese rats treated with L-NAME; FIG. 23
Excerpt: as §1, with “[…] Na/H exchange uptake was measured in BBMV by rapid filtration technique as previously described. […] The results” for “For the diet-induced mice obesity model, LFD and HFD fed B6 mice”, “expressed as Na/H exchange in picomoles per milligram protein at 60 sec.” for “treated with this dose from the age of 20 weeks, and Sprague Dawley rats were treated from the age of 17 wks for 1 week. All the experimental animals were handled and euthanized according to Marshall University IACUC regulations.”

SGLT1 = experiment: Na-glucose co-transport (SGLT1) uptake in villus cell BBMV of L-NAME-treated obese rats; type: in vivo, rat; settings: obese rats (OZR) treated for at least one week with L-NAME; FIG. 21
Excerpt: as §1, with “To inhibit constitutive nitric oxide production in both mice and rats, the animals were first treated with either a 10 or 25 mg/kg per day dosage of used N^G-nitro-L-arginine methyl ester (L-NAME).” left out, “For the diet-induced mice obesity model, LFD and HFD fed B6 mice were treated with this dose from the age of 20 weeks, and Sprague Dawley rats were treated from the age of 17 wks for 1 week. All the experimental animals were handled and euthanized according to Marshall University IACUC regulations.” left out
Uptake studies in intact villus cells and BBMVs. […] Filters with intact villus cells were dissolved in 5 ml scintillation fluid (Ecoscint, National Diagnostics), and radioactivity was determined in a Beckman 6500 Beta Scintillation Counter. […] The uptake experiment results were expressed as Na-glucose co-transport uptake in nanomoles per milligram protein at 60 sec for mice or 90 sec for rats. […]

[1] = test system: Cl:HCO3 exchange (DRA/PAT1); experiment: Cl/HCO3 exchange uptake in BBMV of L-NAME-treated obese rats; type: in vivo, rat; settings: obese rats (OZR) treated for at least one week with L-NAME; FIG. 22
Excerpt: as §1, with “[…] Cl/HCO3 exchange uptake was measured in BBMV by rapid filtration technique as previously described. […] Results were calculated as” for “For”, “HCO3 dependent DIDS sensitive Cl uptake.” for “diet-induced mice obesity model, LFD and HFD fed B6 mice were treated with this dose from the age of 20 weeks, and Sprague Dawley rats were treated from the age of 17 wks for 1 week. All the experimental animals were handled and euthanized according to Marshall University IACUC regulations.”

In the case of COC(=O)[C@@H](N)CCCNC(=N)N[N+](=O)[O-] [L-NAME, N^G-nitro-L-arginine methyl ester], the “lowest dose to consistently affect transporter activities” value (transporter activities) is reported as 10 mg, the “effect on NHE3 activity in obese rats” value (NHE3) is reported as “did not affect NHE3; also recorded: does not affect NHE3 activity” and the “effect on the stimulation of SGLT1 (glucose absorption) in obese rats” value (SGLT1) is reported as “reversed the stimulation of SGLT1”. The “effect on the stimulation of Cl:HCO3 (NaCl absorption) in obese rats” value [1] was “reversed the stimulation of Cl:HCO3”.
